Like-named read-outs stand apart in the source and are kept apart here.
Key:
human recombinant PDE3A = molecular target: T1, human recombinant PDE3A (Homo sapiens, UniProt Q14432); test: PDE-Glo activity inhibition test, PDE3A; type: biochemical; settings: for IC50: human recombinant PDE3A, cAMP substrate, read-out: IC50 (CV%) PDE3A
T1 construct: purchased SignalChem

hA2BR = settings: human A2B receptor; read-out: Ki ± SEM hA2BR vs. [3H]PSB-603; cited from earlier work
hA1R = settings: human A1 receptor; read-out: Ki ± SEM hA1R vs. [3H]CCPA; cited from earlier work
human recombinant PDE2A [1] = molecular target: T2, human recombinant PDE2A (Homo sapiens, UniProt O00408); test: PDE-Glo activity inhibition test, PDE2A; type: biochemical; settings: cGMP substrate, read-out: IC50 (CV%) PDE2A
T2 construct: purchased SignalChem
T2 sequence (O00408 whole entry): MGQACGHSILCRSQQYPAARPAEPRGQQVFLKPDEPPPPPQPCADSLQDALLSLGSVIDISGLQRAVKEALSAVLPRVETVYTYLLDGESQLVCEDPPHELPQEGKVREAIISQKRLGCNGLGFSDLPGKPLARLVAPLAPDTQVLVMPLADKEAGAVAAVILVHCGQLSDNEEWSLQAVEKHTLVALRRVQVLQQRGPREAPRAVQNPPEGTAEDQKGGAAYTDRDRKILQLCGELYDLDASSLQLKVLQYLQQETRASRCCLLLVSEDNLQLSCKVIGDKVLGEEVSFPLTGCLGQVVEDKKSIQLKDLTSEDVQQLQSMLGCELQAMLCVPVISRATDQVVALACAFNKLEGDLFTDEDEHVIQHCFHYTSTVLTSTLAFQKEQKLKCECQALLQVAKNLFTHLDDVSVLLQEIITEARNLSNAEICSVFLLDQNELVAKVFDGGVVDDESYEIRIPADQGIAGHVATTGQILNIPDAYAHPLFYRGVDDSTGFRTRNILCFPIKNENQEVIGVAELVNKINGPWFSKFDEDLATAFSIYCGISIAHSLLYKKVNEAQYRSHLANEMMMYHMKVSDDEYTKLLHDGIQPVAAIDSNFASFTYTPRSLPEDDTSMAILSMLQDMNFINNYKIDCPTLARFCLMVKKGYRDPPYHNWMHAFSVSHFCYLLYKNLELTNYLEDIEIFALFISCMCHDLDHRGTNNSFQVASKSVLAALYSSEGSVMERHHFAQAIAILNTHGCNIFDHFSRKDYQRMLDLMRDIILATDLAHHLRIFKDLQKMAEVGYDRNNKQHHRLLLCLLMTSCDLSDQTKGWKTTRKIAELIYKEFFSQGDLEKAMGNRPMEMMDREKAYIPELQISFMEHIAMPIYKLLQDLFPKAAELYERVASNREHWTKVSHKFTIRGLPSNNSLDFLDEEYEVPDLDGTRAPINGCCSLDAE

[2] = system: lipid peroxidation in rat brain homogenate; test: In vitro lipid peroxidation (MDA/TBARS test)
Experimental: The lipid peroxidation was measured by the formation of thiobarbituric acid reactive substances (TBARS) in rat brain homogenate, which was made in 0.9% NaCl containing 10 mg tissue per mL [60]. Briefly, rat brain homogenates (1 mL) were incubated at 37 °C for 5 min with 10 µL of a test compound or vehicle. Lipid peroxidation was initiated with the addition of 50 µL of 0.5 mmol/L FeCl2 and 50 µL of 2 mmol/L ascorbic acid. After 30 min of incubation, the reaction was stopped by adding 0.1 mL of 0.2% butylhydroxytoluene. Thiobarbituric acid reagent was then added, and the mixture was heated for 15 min in a boiling water bath. The TBARS was extracted using n-butanol and measured at 532 nm. The amount of TBARS was quantified using a standard curve of malondialdehyde (1,1,3,3-tetraethoxypropane was used as standard).
The compound used to compare the results was carvedilol. Its activity was tested in the concentration range of 10–3000 μM (Figure 8). The reference was the maximum activity of carvedilol at the highest concentration (100%). Test compounds were assayed at concentrations of 100 and 1000 µM. The obtained results were then compared to the activity of the reference compound at identical concentrations (1000 µM).

hA2AR = settings: cited from earlier work
[3] = system: platelet aggregation in whole rat blood induced with collagen; test: In vitro whole rat blood aggregation induced with collagen (Multiplate impedance aggregometry); type: cell-based; settings: for Effect on collagen-induced platelet aggregation (in words): screened at 10 µM and 100 µM, whole rat blood (Figure 1); for Effect on collagen-induced platelet aggregation (in words) / Reduction of collagen-induced platelet aggregation: collagen 1.6 µg/mL; for Reduction of collagen-induced platelet aggregation: 100 µM compound, whole rat blood, screening (Figure 1); for IC50: Collagen [1.6 µg/mL], concentration inhibiting aggregation of whole rat blood in vitro by 50%
Experimental: (§1) To evaluate antiplatelet activities of the test compounds, freshly isolated rat whole blood was incubated with compound or vehicle, and the aggregation responses were assessed with a whole blood aggregometer by measuring impedance changes. Platelet aggregation was induced with collagen. First, compounds were screened for anti-aggregation effects at concentration of 10 µM and 100 µM (Figure 1). […] In vitro aggregation tests were conducted using freshly collected whole rat blood with a Multiplate platelet function analyzer (Roche Diagnostic, Mannheim, Germany), the five-channel aggregometer based on measurements of electric impedance, according to previous procedures. Upon activation, platelets adhere and progressively aggregate on a duplicate metal sensor in the analyzer test cuvette. This leads to a change in resistance, which is proportional to the number of platelets adhering to the electrodes. Blood was drawn from the carotid of rats with hirudin blood tubes (S-Monovette, Hirudin, Sarstedt, Germany). Then, 300 μL of hirudin anticoagulated blood was mixed with 300 μL prewarmed isotonic saline solution containing the studied compound or vehicle (DMSO 0.1%) and preincubated for 3 min at 37 °C with continuous stirring. The agonists (collagen, ADP) were diluted using deionized water. Aggregation was induced by adding collagen (final concentration 1.6 µg/mL) or ADP (final concentration 6.5 µM). […] Activated platelet function was recorded for 6 min. Multiplate software v. V2.05 was used to analyze the area under the curve (AUC) of the clotting process for each measurement and calculate the mean values.

human recombinant PDE5A [4] = molecular target: T3, human recombinant PDE5A (Homo sapiens, UniProt O76074); test: PDE-Glo activity inhibition test, PDE5A; type: biochemical; settings: cGMP substrate, read-out: IC50 (CV%) PDE5A
T3 construct: purchased SignalChem

hA3R = settings: human A3 receptor; read-out: Ki ± SEM hA3R vs. [3H]PSB-11; cited from earlier work
[5] = system: platelet aggregation in whole rat blood induced by ADP; test: In vitro whole rat blood aggregation induced with ADP (Multiplate impedance aggregometry); type: cell-based; settings: ADP [6.5 μM], concentration inhibiting aggregation of whole rat blood in vitro by 50%
Experimental: as §1, with “In further experiments,” for “To evaluate antiplatelet activities of the test compounds, freshly isolated rat whole blood was incubated with compound or vehicle, and the aggregation responses were assessed with a whole blood aggregometer by measuring impedance changes. Platelet”, “ADP. In this model of aggregation, we tested the selected” for “collagen. First,”, “as well as IBMX as a positive control.” for “were screened for anti-aggregation effects at concentration of 10 µM and 100 µM (Figure 1).”

human recombinant PDE5A [6] = molecular target: T3, human recombinant PDE5A; set-up: method as in PMID 31705904; settings: cited from earlier work
human recombinant PDE2A [7] = molecular target: T2, human recombinant PDE2A; set-up: method as in PMID 31705904; settings: cited from earlier work

T1 sequence (Q14432 whole entry): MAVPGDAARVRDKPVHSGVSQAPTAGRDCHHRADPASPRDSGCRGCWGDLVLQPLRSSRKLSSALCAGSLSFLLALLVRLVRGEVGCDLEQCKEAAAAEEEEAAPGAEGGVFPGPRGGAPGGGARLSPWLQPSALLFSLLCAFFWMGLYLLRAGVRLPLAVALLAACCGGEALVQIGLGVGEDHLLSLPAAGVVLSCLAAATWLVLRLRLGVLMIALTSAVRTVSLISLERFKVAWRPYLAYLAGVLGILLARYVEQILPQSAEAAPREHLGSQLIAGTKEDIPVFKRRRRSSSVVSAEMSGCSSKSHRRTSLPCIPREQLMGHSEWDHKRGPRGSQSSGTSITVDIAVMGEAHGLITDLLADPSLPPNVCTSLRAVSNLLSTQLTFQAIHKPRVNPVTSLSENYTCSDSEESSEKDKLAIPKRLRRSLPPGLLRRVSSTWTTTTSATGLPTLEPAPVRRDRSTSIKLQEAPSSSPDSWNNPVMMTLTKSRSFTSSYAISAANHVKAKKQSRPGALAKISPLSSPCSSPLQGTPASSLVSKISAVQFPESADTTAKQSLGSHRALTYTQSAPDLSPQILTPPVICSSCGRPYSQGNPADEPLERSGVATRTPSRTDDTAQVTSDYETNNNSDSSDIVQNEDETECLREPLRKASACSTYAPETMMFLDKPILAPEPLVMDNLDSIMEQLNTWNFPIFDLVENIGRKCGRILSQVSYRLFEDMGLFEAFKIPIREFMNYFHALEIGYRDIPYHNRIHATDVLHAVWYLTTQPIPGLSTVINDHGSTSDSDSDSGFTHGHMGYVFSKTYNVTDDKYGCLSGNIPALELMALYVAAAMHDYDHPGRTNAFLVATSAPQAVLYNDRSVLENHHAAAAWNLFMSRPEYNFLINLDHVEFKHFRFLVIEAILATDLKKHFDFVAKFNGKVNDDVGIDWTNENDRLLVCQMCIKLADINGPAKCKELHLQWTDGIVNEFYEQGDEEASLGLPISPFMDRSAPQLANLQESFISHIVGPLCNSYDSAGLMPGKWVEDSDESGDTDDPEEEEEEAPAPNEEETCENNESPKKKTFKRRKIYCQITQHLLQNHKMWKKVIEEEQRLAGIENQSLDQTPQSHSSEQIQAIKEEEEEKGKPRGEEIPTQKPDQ

| Molecule | IC50 (human recombinant PDE3A) [µM] | Ki (hA2BR) [µM] | Ki (hA1R) [µM] | IC50 (human recombinant PDE2A [1]) [µM] | Ki (hA2AR) [µM] | Effect on collagen-induced platelet aggregation (in words) [3] | IC50 (human recombinant PDE5A [4]) [µM] | Ki (hA3R) [µM] | IC50 [5] [µM] | other results |
| --- | --- | --- | --- | --- | --- | --- | --- | --- | --- | --- |
| O=C1CCc2cc(OCCCCc3nnnn3C3CCCCC3)ccc2N1 [Cilostazol, cilostazol, reference compound] | 0.0545 | – | – | – | – | – | – | – | – | – |
| 3,7-dimethyl-8-(3-phenylpropoxy)-1-(prop-2-yn-1-yl)--purine-2,6-dione [TB-46] | 0.58 | 0.472 ± 0.174 | 0.158 ± 0.012 | 9.85 | 0.0191 ± 0.0023 | did not affect platelet aggregation | 68.6 | > 1 | – | Antioxidant activity at a concentration 10 times lower (in words) ([2]; concentration 10 times lower than 1000 µM): practically disappeared |
| CCn1c(=O)c2c(nc(NCc3c(Cl)ccc(OC)c3F)n2C)n(C)c1=O [MZ-1497, 8-((6-chloro-2-fluoro-3-methoxybenzyl)amino)-1-ethyl-3,7-dimethyl-purine-2,6-dione] | – | > 1 | > 1 | – | 0.0685 ± 0.0155 | did not affect platelet aggregation | > 100 | > 1 | – | – |
| CCCn1c(=O)[nH]c2nc(-c3ccc(S(=O)(=O)N4CCN(c5ccc(Cl)cc5)CC4)cc3)[nH]c2c1=O [PSB-603, 1-propyl-8-(4-((4-(4-chlorophenyl)piperazin-1-yl)sulfonyl)phenyl)-1H-purine-2,6(3H,7H)-dione] | > 100 | 0.000553 ± 0.000103 | > 1 | 50.1 | > 1 | – | 39.7 | > 1 | 82.9 ± 17 | Reduction of collagen-induced platelet aggregation [3]: 50.4%; Prevention of collagen-induced platelet aggregation ([3]; 100 µM, highest tested concentration, concentration series (Figure 2)): 54.12%; IC50 [3]: 98.6 ± 27 µM; IC50 ([3]; Rattus norvegicus, Platelet): ~100 µM; Effect on platelet activity at lower concentrations (in words) ([3]; concentrations below 100 µM, collagen 1.6 µg/mL (Figure 2)): did not markedly affect platelet activity; Effect against PDE3A activity (in words) (human recombinant PDE3A; in the concentrations tested): did not display any detectable effects |
| CCCCCC[C@@H]([C@@H](C)O)n1cnc2c(N)ncnc21 (racemic) [EHNA, erythro-9-(2-hydroxy-3-nonyl)adenine, reference compound] | – | – | – | 8.22 | – | – | – | – | – | – |
| C#CCn1c(=O)c2c(nc(OCc3ccccc3Br)n2C)n(C)c1=O [TB-42] | – | > 1 | 0.357 ± 0.049 | – | 0.059 ± 0.0102 | – | 64.5 | – | 58.6 ± 35.6 | Reduction of collagen-induced platelet aggregation [3]: 56.8%; IC50 ([3]; Platelet): 69.3 ± 0.7 µM |
| CCCCn1c(=O)[nH]c2nc(-c3ccc(S(=O)(=O)N4CCN(c5ccc(Cl)cc5)CC4)cc3)[nH]c2c1=O [PSB-23066, 1-butyl-8-(4-((4-(4-chlorophenyl)piperazin-1-yl)sulfonyl)phenyl)-1H-purine-2,6(3H,7H)-dione] | – | 0.000401 ± 0.000136 | > 1 | – | > 1 | did not affect platelet aggregation | 45.8 | > 1 | – | – |
| COc1ccccc1OCCNCC(O)COc1cccc2[nH]c3ccccc3c12 (stereo not shown) [Carvedilol, carvedilol, reference compound] | – | – | – | – | – | – | – | – | – | EC50 ([2]; carvedilol tested at 10–3000 μM, Figure 8, read-out: EC50 antioxidant action (lipid peroxidation)): 68.8 µM |
| CC(C)Cn1c(=O)n(C)c(=O)c2[nH]cnc21 [IBMX, 1-methyl-3-isobutylxanthine, reference compound] | – | – | – | – | – | – | – | – | 18.5 ± 7.3 | IC50 (human recombinant PDE5A [6]): 45.1 µM; IC50 [3]: 98.8 ± 29.8 µM; IC50 ([3]; Rattus norvegicus, Platelet): ~100 µM; IC50 (human recombinant PDE2A [7]): 9.22 µM |
| CC1CCC(N2CCCn3c2nc2c3c(=O)n(C)c(=O)n2C)CC1 (stereo not shown) [KD-64, 1,3-dimethyl-9-(4-methylcyclohexyl)-pyrimido [2,1-f] purine-2,4-dione] | 10.3 | > 1 | > 1 | 27 | 0.24 | did not affect platelet aggregation | > 100 | > 1 | – | – |

From publication PMC10487961, “Antiplatelet Effects of Selected Xanthine-Based Adenosine A2A and A2B Receptor Antagonists Determined in Rat Blood” (International Journal of Molecular Sciences, 2023)
